In PubChem BioAssay AID1949 (Southern Research Institute, 2009):
≈ marks a conversion by molar mass, not a printed value. Results filed as inconclusive are left out. Calls of active or inactive are those of the source. No rule for the calls is given here.

system: M. tuberculosis H37Rv growth inhibition; assay: Mycobacterium tuberculosis H37Rv growth inhibition, cell based, confirmatory dose response (AID 1949);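 also: bacteria grown 7 days with compound before Alamar blue readout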

SMILES | IC50
CCc1cc2c(=O)c(-c3ccc(OC)cc3)coc2cc1OCC(=O)OC | 1.19 µg/mL (≈ 3.23 µM)
O=C(Nc1nc2c(s1)CCCC2)c1ccc(Br)s1 | 0.62 µg/mL (≈ 1.81 µM)
Cc1ccc2nsnc2c1S(=O)(=O)Nc1cccc2cccnc12 | 0.31 µg/mL (≈ 0.87 µM)
Cc1ccc(NC(=O)C23CC4CCC(CC(C4)C2)C3)cc1 | 0.19 µg/mL (≈ 0.67 µM)
CCOC(=O)COc1ccc(S(=O)(=O)N2CCC(C)CC2)cc1 | 1.35 µg/mL (≈ 3.95 µM)
OCc1cn(-c2ccccc2)nc1-c1ccc2c(c1)OCCO2 | 6.9 µg/mL (≈ 22.4 µM)
COc1cccc(C(=O)NC(=S)Nc2ccc(N3CCN(C(=O)c4cccs4)CC3)c(Cl)c2)c1 | 0.76 µg/mL (≈ 1.48 µM)
O=C(c1ccc(NC(=O)C2(c3ccccc3)CCCC2)cc1)N1CCCCC1 | 1.24 µg/mL (≈ 3.29 µM)
CCNS(=O)(=O)c1ccc(NC(=O)Nc2cccc(C(F)(F)F)c2)cc1 | 7.85 µg/mL (≈ 20.3 µM)
COc1nc(SC)nc2sc3c(c12)CCC3 | 1.47 µg/mL (≈ 5.82 µM)
CC(=O)c1ccc(NC(=O)CSc2ccc(F)cc2)cc1 | 7.95 µg/mL (≈ 26.2 µM)
CCn1c2ccccc2c2cc(CN3CCC(N4CCN(c5ccccc5OC)CC4)CC3)ccc21 | 22.4 µg/mL (≈ 46.4 µM)
Cc1ccc(S(=O)(=O)NC(=O)Oc2cccc3cccnc23)cc1 | 3.32 µg/mL (≈ 9.7 µM)
CCCCc1ccc(NC(=S)NC(=O)c2ccc(OCC)c(Cl)c2)cc1 | 0.34 µg/mL (≈ 0.87 µM)
Cc1ccc2c(C)nc(Nc3nc(CSc4nc5ccccc5s4)cc(=O)[nH]3)nc2c1 | 0.38 µg/mL (≈ 0.851 µM)
CCOC(=O)C1=C(c2ccc(C)cc2)C(=O)c2ccccc2C1=O | 3.03 µg/mL (≈ 9.46 µM)
CCOc1ccc(NC(=O)C(C)Oc2ccc(C)c(C)c2)cc1 (configuration not stated) | 4.04 µg/mL (≈ 12.9 µM)
CCC(C)c1ccc(OCC(=O)Nc2ccc(OC)c([N+](=O)[O-])c2)cc1 (configuration not stated) | 1.61 µg/mL (≈ 4.49 µM)
O=[N+]([O-])c1nn(-c2ccccc2)n(O)c1=NC1CCCC1 | 39.3 µg/mL (≈ 136 µM)
CC(=O)Oc1cccc2ccc(/C=C/c3cccs3)nc12 | 1.14 µg/mL (≈ 3.86 µM)
O=C(CC(O)(C(F)(F)F)C(F)(F)F)Nc1cc(Cl)ccc1Cl | 5.84 µg/mL (≈ 15.8 µM)
CC1CCc2c(sc3ncn(C(C)C(=O)OCc4ccccc4)c(=O)c23)C1 (configuration not stated) | 1.53 µg/mL (≈ 4 µM)
COC(=O)c1ccc(NC(=O)CSc2ccc(F)cc2)cc1 | 4.02 µg/mL (≈ 12.6 µM)
CC(C)OC(=O)CSc1nnc(-c2ccc(N(C)C)cc2)o1 | < 0.1 µg/mL

SMILES | IC50
COc1ccc2nc(/C(C#N)=C\c3ccc(SC)cc3)[nH]c2c1 | 7.56 µg/mL (≈ 23.5 µM)
Cc1nc2c(-c3ccc(Cl)cc3)cnn2c(N)c1-c1ccccc1 | 0.84 µg/mL (≈ 2.51 µM)
O=[N+]([O-])c1cccc(NC(=S)Nc2ccc(Cl)c(Cl)c2)c1 | 0.3 µg/mL (≈ 0.877 µM)
COc1ccc(N2CCN(CC(O)COc3ccc(C)cc3C(C)(C)C)CC2)cc1 (configuration not stated) | 4.09 µg/mL (≈ 9.91 µM)
O=C(COc1cccc(Cl)c1)Nc1ccc(F)c(Cl)c1 | 5.7 µg/mL (≈ 18.1 µM)
CNCCCOc1ccc(Cl)cc1C(C)(C)C | 7.95 µg/mL (≈ 31.1 µM)
C=CCn1c(-c2cccs2)nc2ccccc21 | 1.86 µg/mL (≈ 7.74 µM)
CC1(C)Cc2c(sc3nc(SCC(=O)Nc4ccc(Br)cc4)nc(N)c23)CS1 | 6.22 µg/mL (≈ 12.6 µM)
O=C(Nc1ccc2c(c1)OCCO2)C(Cl)Cl | 6.65 µg/mL (≈ 25.4 µM)
c1ccc2sc(NC3=NCN(Cc4ccc5c(c4)OCO5)CN3)nc2c1 | 1.52 µg/mL (≈ 4.14 µM)
O=C(CSc1nnc(-c2ccccc2Cl)o1)Nc1ccccn1 | > 50 µg/mL (inactive)
CN1CCC(O)(c2cccs2)C(C(=O)c2cccs2)C1 (configuration not stated) | 1.54 µg/mL (≈ 5.01 µM)
CCN1CCN(c2ccc(NC(=O)c3cc4ccccc4cc3OC)cc2Cl)CC1 | 23.9 µg/mL (≈ 56.5 µM)
O=C(Nc1ccc([N+](=O)[O-])cc1)c1nc[nH]c1C(=O)NCc1ccccc1 | 7.92 µg/mL (≈ 21.7 µM)
Cc1ccc(-n2cc(-c3ccccc3)c3c(NCc4cccnc4)ncnc32)cc1 | 3.25 µg/mL (≈ 8.3 µM)
Nc1ncnc(Sc2ncccn2)c1[N+](=O)[O-] | > 50 µg/mL (inactive)
CCOC(=O)COc1ccc2c(c1)c(C(C)=O)c(C)n2Cc1ccccc1 | 24.9 µg/mL (≈ 68.2 µM)
CCOc1ccc(C(=O)NC(=S)Nc2ccc(CN3CCOCC3)cc2)cc1Cl | 15.7 µg/mL (≈ 36.2 µM)
CCOC(=O)CCc1c(C)c(C#N)c2[nH]c3ccccc3n2c1=O | < 0.1 µg/mL
O=C(CCNc1ccc(-c2ccccc2)cc1)c1ccco1 | < 0.1 µg/mL
COc1ccc(Nc2cc(C)nc3c2ccc2ccccc23)cc1 | 1.62 µg/mL (≈ 5.15 µM)
Oc1ccccc1-c1n[nH]c(/C=C/c2ccccc2Cl)n1 | 6.45 µg/mL (≈ 21.7 µM)
CCCc1cc(C(N)=O)c(NC(=O)c2ccoc2C)s1 | 4.4 µg/mL (≈ 15 µM)
Oc1ccc(-c2nc3cc4ccccc4cc3nc2-c2ccccc2)cc1 | 0.96 µg/mL (≈ 2.76 µM)

SMILES | IC50
O=[N+]([O-])c1ccc(N2CCN(C(=S)NCc3ccc(Cl)cc3)CC2)cc1 | 2.58 µg/mL (≈ 6.6 µM)
CC(=O)Cc1nc(-c2ccccc2)no1 | > 50 µg/mL (inactive)
CC(C)(C)c1cc(Cl)ccc1OCCn1ccnc1 | 1.94 µg/mL (≈ 6.96 µM)
COC(=O)c1c(C)oc2ccc(OC(=O)c3ccc([N+](=O)[O-])cc3)cc12 | > 50 µg/mL (inactive)
COC(=O)Cc1c(C)c2ccc(OCC(=O)OCc3ccccc3)c(C)c2oc1=O | 0.11 µg/mL (≈ 0.268 µM)
Cc1ccc2nc(N/N=C\c3ccc([N+](=O)[O-])o3)nc(-c3ccccc3)c2c1 | 3.63 µg/mL (≈ 9.72 µM)
N#Cc1ccc(Sc2nc3ccccc3o2)c([N+](=O)[O-])c1 | > 50 µg/mL (inactive)
NC(=O)CSc1nnc(SCc2ccc(Cl)cc2)s1 | 5.19 µg/mL (≈ 15.6 µM)
COc1ccc(CNc2ccccc2O)cc1OC | 16.3 µg/mL (≈ 62.7 µM)
N#Cc1ccc(NC(=O)CSc2ccc(Cl)cc2)cc1 | 2.94 µg/mL (≈ 9.71 µM)
COC(=O)C1=C(C)NC2=C(C(=O)CC(c3ccccc3)C2)C1c1ccccc1Br (configuration not stated) | 7.5 µg/mL (≈ 16.6 µM)
O=C(Nc1ccccc1Br)c1ccc([N+](=O)[O-])o1 | 1.61 µg/mL (≈ 5.18 µM)
CCOC(=O)c1ccc(NC(=S)NC(NC(=O)c2ccc(Br)cc2)C(Cl)(Cl)Cl)cc1 (configuration not stated) | 6.15 µg/mL (≈ 11.1 µM)
Cc1cccc(Nc2nc(N)nc(CN3CCN(c4cccc(Cl)c4)CC3)n2)c1 | 0.39 µg/mL (≈ 0.951 µM)
Cn1nc([N+](=O)[O-])nc1Oc1ccc(C(C)(C)C)cc1 | < 0.1 µg/mL
O=C(Nc1nc(SCc2ccc(F)cc2)ns1)c1cc(F)c(F)cc1Cl | 2.35 µg/mL (≈ 5.65 µM)
CN1CCN(c2ccc(NC(=S)NC(=O)c3ccc(-c4cccc(Cl)c4)o3)cc2)CC1 | 0.38 µg/mL (≈ 0.835 µM)
Cc1ccc(Cl)cc1N1CCN(CC(O)COC2CC(C)CC(C)(C)C2)CC1 (configuration not stated) | 7.82 µg/mL (≈ 19.1 µM)
COc1ccc(CNCCC(c2ccc(OC)cc2)c2ccccc2OC)cc1 (configuration not stated) | 8 µg/mL (≈ 20.4 µM)
Cc1ccc(Oc2nc(-c3cccnc3)nc3ccccc23)cc1C | 15.8 µg/mL (≈ 48.4 µM)
COc1ccc2nc(NC(=O)C(Sc3ccccc3)c3ccccc3)sc2c1 (configuration not stated) | 4.87 µg/mL (≈ 12 µM)
COC(=O)C(C)Oc1ccc2c(=O)c(Oc3ccccc3Br)coc2c1 (configuration not stated) | 2.96 µg/mL (≈ 7.06 µM)
Fc1ccccc1-c1nc(-c2cnc3ccccc3c2)c(-c2cccs2)[nH]1 | 5.05 µg/mL (≈ 13.6 µM)
CCOc1ccccc1NC(=O)CSc1nc2ccc(NC(=O)c3ccccc3Cl)cc2s1 | 1.25 µg/mL (≈ 2.51 µM)

SMILES | IC50
Cc1cc(C)nc(/N=C(\N)Nc2ccccc2Sc2ccccc2)n1 | > 50 µg/mL (inactive)
O=c1c2ccccc2nc(/C=C/c2ccc([N+](=O)[O-])o2)n1-c1cccc(O)c1 | 0.65 µg/mL (≈ 1.73 µM)
O=C(CNCCN1CCOCC1)Nc1sc2c(c1C(=O)Nc1ccccc1)CCC2 | 2.12 µg/mL (≈ 4.95 µM)
CC12CCC(C(=O)Nc3ccc(OC(F)(F)F)cc3)(CC1=O)C2(C)C (configuration not stated) | 3.09 µg/mL (≈ 8.7 µM)
NC(=O)COc1ccc(C23CC4CC(CC(C4)C2)C3)cc1 | 19.7 µg/mL (≈ 69.2 µM)
CCNc1nc(NCC)nc(SCCOc2ccc(Br)cc2)n1 | 4.24 µg/mL (≈ 10.6 µM)
COc1ccc(-c2cc(-c3ccccc3)nc(-n3nc(C)cc3C)n2)cc1 | 4.22 µg/mL (≈ 11.8 µM)
Cc1ccc(CNC(=O)c2ccc(C)cc2Cl)cc1 | > 50 µg/mL (inactive)
COc1cc(CNCc2ccccc2)c(Br)cc1OC1CCCC1 | 10.5 µg/mL (≈ 27 µM)
Cc1ccc(NC(=S)c2ccccn2)cc1 | 0.99 µg/mL (≈ 4.34 µM)
CCCCn1c(O)c(/C=C2\C=CC=N2)c(=O)[nH]c1=O | < 0.1 µg/mL
CCc1cc2c(=O)c(Oc3ccc(-c4ccccc4)cc3)coc2cc1OC(C)=O | 5.89 µg/mL (≈ 14.7 µM)
COc1ccccc1C(=O)Nc1ccc2oc(-c3cccc(Cl)c3)nc2c1 | > 50 µg/mL (inactive)
COC(=O)c1c(NC(=O)c2c(F)c(F)c(F)c(F)c2F)sc2c1CCCCC2 | 0.36 µg/mL (≈ 0.858 µM)
CN(C)C(=S)Nc1nc2ccccc2s1 | < 0.1 µg/mL
CCCCn1c(NC(=S)Nc2ccccc2)nc2ccccc21 | 4.83 µg/mL (≈ 14.9 µM)
COC(=O)COc1ccc(NC(=O)c2ccc(-c3ccccc3)cc2)cc1 | < 0.1 µg/mL
O=c1cc(-c2ccccc2)[nH]n1-c1ccc([N+](=O)[O-])cc1 | 10.8 µg/mL (≈ 38.5 µM)
CC(C)OC(=O)C(C)Oc1ccc(C(=O)NCCc2ccccc2)cc1 (configuration not stated) | 48.3 µg/mL (≈ 136 µM)
Cc1c(NC(=O)Nc2cccc(C(F)(F)F)c2)cccc1[N+](=O)[O-] | 2.93 µg/mL (≈ 8.64 µM)
CN1CCN(c2ccc(NC(=O)c3cccc(I)c3)cc2)CC1 | > 50 µg/mL (inactive)
Cc1ccc(Cl)cc1N1CCN(CC(O)COc2ccc(Cl)cc2)CC1 (configuration not stated) | 4.57 µg/mL (≈ 11.6 µM)
O=c1c2ccccc2nc(/C=C/c2ccc(Br)cc2)n1-c1ccc(O)cc1 | > 50 µg/mL (inactive)
Cc1ccc(C)c(OCC(=O)Nc2ccc(C(=O)OC(C)C)cc2)c1C | 3.77 µg/mL (≈ 10.6 µM)

SMILES | IC50
Cc1ccc(SCCNC(=S)Nc2ccc(Nc3ccccc3)cc2)cc1 | 4.03 µg/mL (≈ 10.2 µM)
Cc1cc(Cl)ccc1OCC(O)CNC(C)c1ccccc1 (configuration not stated) | 8.02 µg/mL (≈ 25.1 µM)
COC(=O)C1=C(C)NC2=C(C(=O)CC(c3ccc(F)cc3)C2)C1c1ccccc1Cl (configuration not stated) | 3.64 µg/mL (≈ 8.55 µM)
Cc1ccc(OCCN2CCN(c3nc(NCc4ccco4)c4ccccc4n3)CC2)cc1 | 6.3 µg/mL (≈ 14.2 µM)
COc1ccc(-c2nc(-c3ccc(O)cc3O)cs2)cc1OC | 0.17 µg/mL (≈ 0.516 µM)
COc1cc2cc(-c3nc4ccccc4[nH]3)c(N)nc2cc1OC | 3.24 µg/mL (≈ 10.1 µM)
O=C(Nc1cccc(Cl)c1)Nc1ccccc1OC(F)(F)C(F)F | 0.19 µg/mL (≈ 0.524 µM)
OCc1cn(-c2ccccc2)nc1-c1ccc2ccccc2c1 | 4.25 µg/mL (≈ 14.1 µM)
O=C(CCN1CCC(c2ccccc2)C1)c1ccccc1 (configuration not stated) | 12.5 µg/mL (≈ 44.6 µM)
C=CCN(CC=C)C(=S)NC(=O)c1ccc(F)cc1 | 0.81 µg/mL (≈ 2.91 µM)
CC(C)OC(=O)C(C)n1cnc2scc(-c3ccc(Br)cc3)c2c1=O (configuration not stated) | 8.3 µg/mL (≈ 19.7 µM)
O=C(Nc1cccc(CCc2ccccn2)c1)NC1CCCCC1 | 38.7 µg/mL (≈ 120 µM)
O=S1(=O)C=C(Sc2nnc(-c3ccncc3)o2)c2ccccc21 | 1.33 µg/mL (≈ 3.87 µM)
Cc1ccc(NCCC(=O)c2ccc([N+](=O)[O-])cc2)cc1C | 1.06 µg/mL (≈ 3.55 µM)
CN(C)c1ccc(CNC23CC4CC(CC(C4)C2)C3)cc1 | 1.43 µg/mL (≈ 5.03 µM)
Cc1cc2ncn(CCOc3ccc(Cl)cc3)c2cc1C | 1.12 µg/mL (≈ 3.72 µM)
COc1ccc(NC(=O)c2c(NC(=O)c3ccc([N+](=O)[O-])o3)sc3c2CCC3)cc1 | 0.26 µg/mL (≈ 0.608 µM)
c1ccc(-n2nnnc2Oc2cccc3cccnc23)cc1 | 5.68 µg/mL (≈ 19.6 µM)
COc1cc(NC(=O)c2ccc3c(c2)OCCO3)ccc1NC(=O)c1ccccc1Cl | 0.66 µg/mL (≈ 1.5 µM)
CCCCOc1ccc(NC2=NC3(CCCCC3)N=C(N)N2)cc1 | 12.1 µg/mL (≈ 36.6 µM)
c1ccc2cc3nc4c(ccc5ccccc54)nc3cc2c1 | < 0.1 µg/mL
